Assay [1] deals with T1, vasopressin receptor sites (Sus scrofa, UniProt P32307).
T1 construct: from tissue; renal medulla by own knowledge of the cited protocol
As to the kind of experiment: Binding activity in hog tissue (KB), protocol of Stassen et al. The source says: (§1) The binding activity in hog and rat liver tissue, as well as the antagonistic activity in the hydropenic rat, of the compounds according to this invention is illustrated by the following results which were obtained using testing protocols which are described in the literature [F. Stassen, J. Pharmacology and Experimental Therapeutics, 223 50 (1982)]: […]

Assay [2] deals with T2, vasopressin receptor sites (Rattus norvegicus, UniProt P30560).
T2 construct: from tissue; host or cells: rat liver tissue
T2 sequence (P30560 whole entry): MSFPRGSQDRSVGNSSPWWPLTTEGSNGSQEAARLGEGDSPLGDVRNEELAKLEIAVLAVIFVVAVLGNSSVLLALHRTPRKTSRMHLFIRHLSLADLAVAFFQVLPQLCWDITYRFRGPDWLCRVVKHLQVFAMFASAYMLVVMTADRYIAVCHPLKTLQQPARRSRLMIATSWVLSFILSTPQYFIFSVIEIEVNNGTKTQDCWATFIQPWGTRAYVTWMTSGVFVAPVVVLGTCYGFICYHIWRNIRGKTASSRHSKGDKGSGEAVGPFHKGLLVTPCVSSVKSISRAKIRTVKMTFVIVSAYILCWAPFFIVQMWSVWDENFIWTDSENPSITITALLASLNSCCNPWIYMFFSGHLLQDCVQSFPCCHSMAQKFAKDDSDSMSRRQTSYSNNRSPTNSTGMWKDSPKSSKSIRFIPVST
As to the kind of experiment: Binding activity in rat liver tissue (KB), protocol of Stassen et al.
Text: as §1

Positions of bridges follow the written chain, without caps; N, C: chain ends. Non-standard residues stand in square brackets, D forms with d. Residues, ends and D or L forms follow the SMILES beside them. Pen = CC(C)(S)[C@H](N)C(=O)O; Mpa = O=C(O)CCS

T1 sequence (P32307 whole entry): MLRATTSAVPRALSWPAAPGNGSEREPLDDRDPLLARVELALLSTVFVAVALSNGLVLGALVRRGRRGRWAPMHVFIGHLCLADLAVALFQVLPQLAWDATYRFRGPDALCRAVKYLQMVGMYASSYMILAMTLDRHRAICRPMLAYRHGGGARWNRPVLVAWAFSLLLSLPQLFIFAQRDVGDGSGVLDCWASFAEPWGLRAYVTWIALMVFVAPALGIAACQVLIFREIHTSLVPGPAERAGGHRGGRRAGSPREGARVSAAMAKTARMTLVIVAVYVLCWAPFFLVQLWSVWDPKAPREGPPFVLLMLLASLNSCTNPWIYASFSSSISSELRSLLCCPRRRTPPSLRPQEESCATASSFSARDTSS

For `CCOc1ccc(C[C@H]2NC(=O)CCSSC(C)(C)[C@@H](C(=O)N3CCC[C@H]3C(=O)N[C@@H](CCCNC(=N)N)C(=O)NCC(N)=O)NC(=O)[C@H](CC(N)=O)NC(=O)[C@H](C(C)C)NC(=O)[C@H](Cc3ccccc3)NC2=O)cc1` [Compound A, Mpr--D-Tyr(Et)--Phe--Val--Asn--Pen--Pro--Arg--Gly(NH2)] ([Mpa][dY](Et)FVN[Pen]PRG-NH2; disulfide 1-6), the values for the Kb in assay [1] and in assay [2] were 190 nM and 110 nM, respectively.

Molecule `CCOc1ccc(C[C@H]2NC(=O)CCSSC[C@@H](C(=O)N3CCC[C@H]3C(=O)N[C@@H](CCCNC(=N)N)C(=O)NCC(N)=O)NC(=O)[C@H](CC(N)=O)NC(=O)[C@H](C(C)C)NC(=O)[C@H](Cc3ccccc3)NC2=O)cc1` [Compound B, Mpr--D-Tyr(Et)--Phe--Val--Asn--Cys--Pro--Arg--Gly(NH2), reference compound] ([Mpa][dY](Et)FVNCPRG-NH2; disulfide 1-6) returned a Kb in assay [1] of 9900 nM.

These data come from US4711877A, “6-pen-vasopressin compounds” (SmithKline Beckman Corporation, priority 1985, dated 1987).
